The values below come from PMC9299220, “Inhibition of JMJD6 by 2‐Oxoglutarate Mimics” (Chemmedchem, 2021).

“Also recorded” adds a separate entry of the source. Where two headings read alike, the source gives them in different places.

The target in one experiment is T1, JMJD6Δ363‐403 (Homo sapiens, UniProt Q6NYC1).
T1 construct: made in house
Put plainly: MALDI-TOF MS assay of JMJD6-catalysed lysine hydroxylation of LUC7L2 267-278 peptide. It is filed as biochemical. The conditions noted are these: for IC50: n=3, 10 μM JMJD6Δ363‐403, 100 μM LUC7L2 267‐278, 100 μM Fe(II), 400 μM L-sodium ascorbate, 20 μM 2OG, inhibitor 0–10 mM; for potency of JMJD6 inhibition (in words): MS assay. An excerpt:
Initially, we used the MS assay to screen a range of potential JMJD6 inhibitors, based on scaffolds identified as inhibitors of other 2OG oxygenases, grouped into: (i) TCA cycle and related acidic compounds; (ii) 2OG mimics / broad spectrum 2OG oxygenase inhibitors; (iii) PHD inhibitors in clinical use / investigation; (iv) tricarbonyl type compounds, which are known iron oxygenase inhibitors; (v) reported inhibitors of the JmjC KDMs.[23]
Figure S1. Initial inhibition assays. Bar charts showing extent of JMJD6 inhibition by 0.1, 1, and 10 mM compound: (A) TCA cycle intermediates/related compounds, (B) 2OG analogues, (C) PHD inhibitors, (D) Tricarbonyl type compounds, (E) JmjC KDM inhibitors.
Values represent the mean ± SD (n = 3). Conditions: 10 µM JMJD6Δ363-403 (prepared as […]
reported) and 100 µM LUC7L2267-278 ([…], with a C-terminal amide) at 37 °C in 50 mM HEPES pH 7.5 buffer with 100 µM (NH4)2Fe(SO4)2.6H2O (Sigma-Aldrich), […]
varied inhibitor concentrations (0-10 mM). Reactions were quenched and products analysed by MALDI-TOF MS following a reported procedure.[11]
(1 picture or pasted object on this page, not shown here)

The target of experiment [1] is T2, JMJD6Δ363‐403.Zn(II).2OG complex (Homo sapiens, UniProt Q6NYC1).
T2 construct: made in house
Put plainly: Ligand-observed CPMG-edited 1H NMR 2OG displacement assay from JMJD6Δ363‐403.Zn(II).2OG complex. The class given is binding. The conditions noted are these: for Kd: 1H NMR, 60 µM EDTA-treated JMJD6, 200 µM Zn(II), 20 µM 2OG, 50 mM Tris-D11 pH 7.0, 10% D2O, mean ± SD (n=3), read-out: KD app (apparent binding constant) (converted); for extent of 2OG displacement from JMJD6Δ363‐403.Zn(II).2OG complex (in words): initial screen, fixed inhibitor concentration (400 µM ligand), Figure S6. From the text: We investigated whether the inhibitors compete for binding to JMJD6^Δ363‐403, using ^1H NMR to investigate the extent to which they displace 2OG from the JMJD6^Δ363‐403.Zn(II).2OG complex, initially with a fixed inhibitor concentration (Figure S6).[21, 22]
Figure S6: 2OG displacement ligand-binding assays with JMJD6 using CPMG-edited 1H NMR. Bar charts show the extent of 2OG displacement for: (A) TCA cycle intermediates, (B) 2OG mimetics, (C) PHD inhibitors, (D) tricarbonyl type compounds, (E) KDM inhibitors. Conditions: 60 µM EDTA-treated JMJD6∆363-403, 200 µM Zn(II), 10 µM 2OG, and 400 µM of the ligand, all in 50 mM Tris-D11, pH 7.0 in 10% D2O. Values represent the mean (n = 3) ± standard deviation (SD). Eq DMSO: DMSO control without inhibitor.
Figure S7: KDapp determination for TCA cycle intermediates / related compounds binding to JMJD6. Plots used for the determination of KDapp values of (A) fumarate and (B) […]
succinate. […] Conditions: 60 µM
EDTA-treated JMJD6, 200 µM Zn(II), 20 µM 2OG, 0-400 µM ligand, all in 50 mM Tris-D11 pH 7.0 in 10% D2O. Values represent the mean ± SD (n = 3). Compound structures are […]
Figure S8: KDapp determination for pyridine derivative binding to JMJD6. Plots used for determination of KDapp values (A) 2,4-PDCA and (B) 2,4-BPDCA.
Conditions: 60 µM EDTA-treated
D2O. Values represent the mean ± SD (n = 3).
Figure S9: KDapp determination for PHD inhibitor binding to JMJD6. Plots used for the determination of KDapp value (A) AKB-6899 and (B) Vadadustat.
Conditions: 60 µM EDTA-treated JMJD6,
Values represent the mean ± SD (n = 3).
Conditions for NMR assays
NMR was used to measure 2OG displacement from JMJD6 caused by inhibitors according to the method of Leung et al. The Carr-Purcell-Meiboom-Gill (CPMG) pulse sequence coupled with periodic refocusing of J evolution by coherence transfer (PROJECT) method was applied for spectral editing was used to edit out protein signals. In the initial screen […]
2OG and 400 µM inhibitor; the 1H NMR-spectra of 2OG were then analysed. To determine the apparent binding constant (KDapp), 20 µM of 2OG was titrated against increasing concentrations of JMJD6Δ363-403 in the presence of Zn(II) [JMJD6∆363-403.Zn(II)]. Thus, JMJD6∆363-403.Zn(II) was added until the methylene signals of 2OG were no longer observed, indicating complete 2OG binding to JMJD6. The extent of 2OG (%) bound to JMJD6Δ363-403 was calculated and the values were plotted against the concentration of JMJD6Δ363-403 using OriginTM. The KDapp of 2OG was calculated as reported.[11] To determine the KDapp for the inhibitor, the recovery of 2OG-signals was monitored in the presence of varied concentrations of inhibitor (0-800 µM).
% 2OG Displacement = x 100 […]
where, I2OG is the integral of the 2OG 1H signal in the presence of both inhibitor and JMJD6∆363-403.Zn(II)], I2OG(0) is the integral of 2OG in the presence of JMJD6∆363-403.Zn(II)] without inhibitor, I2OG(blank) is the integral of 2OG in the absence of both JMJD6∆363-403.Zn(II)] and inhibitor, ∆obs is the change in the integral of 2OG resulting from titration, ∆max represents the maximum change of the monitored NMR parameter (2OG integral), [L]0 is the titrated ligand concentration, and [P]0 is the JMJD6∆363-403concentration. 5-10% error was typically allowed in the curve fitting process.

In the case of `O=C(O)c1ccnc(-c2cc(C(=O)O)ccn2)c1` [2,4 BPDCA, 2,2’‐bipyridine‐4,4’‐dicarboxylate, reference compound], the IC50 at JMJD6Δ363‐403 (mean±SD, read-out: IC50) is 6 ± 1.6 µM. For the same molecule, in experiment [1], the Kd was 7 µM and the “extent of 2OG displacement from JMJD6Δ363‐403.Zn(II).2OG complex (in words)” value is given as “most efficiently displaced 2OG”.
The like results for `O=C(O)c1ccnc(C(=O)O)c1` [2,4 PDCA, pyridine‐2,4‐dicarboxylate, reference compound] were, in that order, 13 ± 1.3 µM, 6 µM and “most efficiently displaced 2OG”.
Taken in the same sequence, the figures for `O=C(O)CNC(=O)c1ncc(-c2cccc(F)c2)cc1O` [AKB‐6899] were 9 ± 1.5 µM, 3 µM and “most efficiently displaced 2OG”.
For `O=C(O)CC(O)(CC(=O)O)C(=O)O` [Citrate], at JMJD6Δ363‐403 (mean±SD, read-out: IC50), the IC50 came to 987 ± 1.3 µM.
Molecule `CN(C)NC(=O)CCC(=O)O` [Daminozide, reference compound] came in with an IC50 on JMJD6Δ363‐403 (IC50, mean±SD) of 94 ± 1.5 µM.
With `O=C(O)CC[C@@H](O)C(=O)O` [D‐2HG, 2‐hydroxyglutarate], the IC50 at JMJD6Δ363‐403 (mean±SD, read-out: IC50) worked out at 622 ± 1.4 µM.
Consider `Cc1nc(C(=O)NCC(=O)O)c(O)c2ccc(Oc3ccccc3)cc12` [FG‐4592, reference compound], for which, on JMJD6Δ363‐403 (mean±SD, read-out: IC50), the IC50 came out at 23 ± 1.5 µM.
Take `O=C(O)/C=C/C(=O)O` [Fumarate]: the “potency of JMJD6 inhibition (in words)” value at JMJD6Δ363‐403 is “most potent of these compounds”. In addition, on JMJD6Δ363‐403 (mean±SD, read-out: IC50), the IC50 amounted to 165 ± 1.4 µM. Also, in experiment [1], the Kd is 109 µM and the “extent of 2OG displacement from JMJD6Δ363‐403.Zn(II).2OG complex (in words)” value is on record as “most efficiently displaced 2OG”.
On JMJD6Δ363‐403 (IC50, mean±SD), `O=C(O)CNC(=O)c1c(O)n(C2CCCCC2)c(=O)n(C2CCCCC2)c1=O` [GSK1278863, reference compound] gave an IC50 of 10 ± 1.2 µM.
On to `O=C(O)c1ccc(O)c2ncccc12` [IOX1, 5‐carboxy‐8‐hydroxyquinoline, reference compound], for which the IC50 at JMJD6Δ363‐403 (mean±SD, read-out: IC50) is 10 ± 1.5 µM.
On to `O=C(O)CC[C@H](O)C(=O)O` [L‐2HG, 2‐hydroxyglutarate], for which, on JMJD6Δ363‐403 (mean±SD, read-out: IC50), the IC50 was determined as 871 ± 1.5 µM.
On the same count and under the same terms, in the case of `O=C(O)CC(O)C(=O)O` (centres unmarked) [Malate] it was 5103 ± 2 µM; in that of `O=c1c(-n2ccnn2)c[nH]n1-c1cc(N2CCOCC2)ncn1` [Molidustat, reference compound], 74 ± 1.6 µM.
Turning to `O=C(O)CNC(=O)C(=O)O` [NOG, N‐oxalylglycine, reference compound], the “potency of JMJD6 inhibition (in words)” value on JMJD6Δ363‐403 is “poor inhibitor; also recorded: not a potent JMJD6 inhibitor”. For the same molecule, the IC50 on JMJD6Δ363‐403 (mean±SD, read-out: IC50) was 296 ± 1.9 µM. Also, the “extent of 2OG displacement from JMJD6Δ363‐403.Zn(II).2OG complex (in words)” value in experiment [1] is given as “only weakly displaced 2OG”.
For `O=C(O)CC(=O)C(=O)O` [Oxaloacetate], at JMJD6Δ363‐403 (mean±SD, read-out: IC50), the IC50 was 204 ± 2 µM.
The same measure, in the same setting: in the case of `CC(=O)C(=O)O` [Pyruvate] it was 2377 ± 1.7 µM.
For the molecule `O=C(O)CCC(=O)O` [Succinate], the IC50 on JMJD6Δ363‐403 (mean±SD, read-out: IC50) turned out to be 261 ± 2.3 µM. For the same molecule, in experiment [1], the Kd is 159 µM and the “extent of 2OG displacement from JMJD6Δ363‐403.Zn(II).2OG complex (in words)” value is on record as “most efficiently displaced 2OG”.
With `O=C(O)CNC(=O)c1ncc(-c2cccc(Cl)c2)cc1O` [Vadadustat], the 50% inhibitory concentration (IC50) at JMJD6Δ363‐403 (mean±SD, read-out: IC50) was found to be 7 ± 1.6 µM. Further, in experiment [1], the Kd is 14 µM and the “extent of 2OG displacement from JMJD6Δ363‐403.Zn(II).2OG complex (in words)” value is reported as “most efficiently displaced 2OG”.
For the molecule `O=C(O)CNC(=O)CNC(=O)C(=O)O` [compound 1], the IC50 on JMJD6Δ363‐403 (mean±SD, read-out: IC50) turned out to be 189 ± 1.5 µM.
Still for that read-out and setting: in the case of `O=C(O)c1ccnc2c(O)cccc12` [compound 2] it was 5 ± 1.3 µM.
Regarding `O=C(O)CCC(=O)NO` [compound 3], on JMJD6Δ363‐403 (mean±SD, read-out: IC50), the IC50 worked out at 25 ± 2 µM.
At JMJD6Δ363‐403 (IC50, mean±SD), `CCOC(=O)CNC(=O)c1c(O)n(C2CCCCC2)c(=O)n(C2CCCCC2)c1=O` [compound 4] showed an IC50 of 175 ± 1.5 µM.
In turn, `O=C(O)CNC(=O)c1c(O)[nH]c(=O)[nH]c1=O` [compound 5] returned an IC50 against JMJD6Δ363‐403 (IC50, mean±SD) of 19 ± 1.3 µM.
Still for that read-out and setting: as for `Cn1c(O)c(C(=O)NCC(=O)O)c(=O)n(C)c1=O` [compound 6], the figure is 23 ± 1.2 µM; as for `Cn1c(O)c(C(=O)CCc2ccccc2)c(=O)n(C)c1=O` [compound 7], 43 ± 1.1 µM.
The same measure, in the same setting: as for `Cn1c(O)c(C(=O)CCc2cccs2)c(=O)n(C)c1=O` [compound 8], the figure is 27 ± 1.4 µM.
For the molecule `CCn1c(O)c(C(=O)CCC2CCCC2)c(=O)n(CC)c1=O` [compound 9], the IC50 at JMJD6Δ363‐403 (IC50, mean±SD) was at least 1000 µM.
Still for that read-out and setting: in the case of `O=C(CCC1CCCC1)c1c(O)n(C2CCCCC2)c(=O)n(C2CCCCC2)c1=O` [compound 10] it was at least 1000 µM; in that of `Cn1c(O)c(C(=O)CCC2CCCC2)c(=O)n(C)c1=O` [compound 11], 67 ± 1.2 µM.
On JMJD6Δ363‐403 (IC50, mean±SD), `COc1ccccc1CCC(=O)c1c(O)n(C)c(=O)n(C)c1=O` [compound 12] had an IC50 of 58 ± 1.4 µM.
The same measure, in the same setting: as for `COc1cccc(CCC(=O)c2c(O)n(C)c(=O)n(C)c2=O)c1` [compound 13], the figure is 135 ± 1.3 µM; as for `Cn1c(O)c(C(=O)CCC2CC2)c(=O)n(C)c1=O` [compound 14], 163 ± 1.3 µM.
Same read-out and setting: as for `Cn1c(O)c(C(=O)CCc2ccsc2)c(=O)n(C)c1=O` [compound 15], the figure is at least 1000 µM; as for `CC(Cc1ccsc1)C(=O)c1c(O)n(C)c(=O)n(C)c1=O` (centres unmarked) [compound 16], 214 ± 1.4 µM; as for `CC(Cc1ccsc1)C(=O)c1c(O)n(C)c(=O)n(C)c1=O` (centres unmarked) [compound 17], 22 ± 1.4 µM.
